# Key:
# ZEAMX = assay: Post-emergence herbicidal effect and crop plant compatibility, greenhouse pot test; type: in vivo, Zea mays; settings: one-leaf stage, rated visually after about 3 weeks vs untreated controls
# How it was run: (§1)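 Sandy loam pots, greenhouse. One-leaf stage (2–3 wk after sowing) foliar spray; WP/EC in water + 0.5% additive, 600 l/ha; 20–320 g/ha. Visual score ~3 wk, 0–100% vs untreated.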
# ABUTH = assay: Post-emergence herbicidal effect, greenhouse pot test; type: in vivo, Abutilon theophrasti; settings: visual rating about 3 weeks after treatment
# How it was run: as §1
# ALOMY = assay: as above; type: in vivo, Alopecurus myosuroides; settings: 320 g/ha, visual rating about 3 weeks after treatment
# How it was run: as §1
# AMARE = assay: as above; type: in vivo, Amaranthus retroflexus; settings: visual rating about 3 weeks after treatment
# How it was run: as §1
# AVEFA = assay: as above; type: in vivo, Avena fatua; settings: visual rating about 3 weeks after treatment
# How it was run: as §1
# DIGSA = assay: as above; type: in vivo, Digitaria sanguinalis; settings: visual rating about 3 weeks after treatment
# How it was run: as §1
# ECHCG = assay: as above; type: in vivo, Echinochloa crus-galli
# How it was run: as §1
# LOLRI = assay: as above; type: in vivo, Lolium rigidum
# How it was run: as §1
# MATIN = assay: as above; type: in vivo, Tripleurospermum inodorum
# How it was run: as §1
# PHBPU = assay: as above; type: in vivo, Ipomoea purpurea
# How it was run: as §1
# POLCO = assay: as above; type: in vivo, Fallopia convolvulus
# How it was run: as §1
# SETVI = assay: as above; type: in vivo, Setaria viridis
# How it was run: as §1
# VERPE = assay: as above; type: in vivo, Veronica persica
# How it was run: as §1
# VIOTR = assay: as above; type: in vivo, Viola tricolor
# How it was run: as §1
# KCHSC = assay: as above; type: in vivo
# How it was run: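 Greenhouse plants in sandy loam, sprayed post-emergence at the one-leaf stage (2–3 weeks after sowing) with WP or EC formulations in water plus 0.5% additive at 600 l/ha. Rates 20 to 320 g/ha. Activity rated visually after about 3 weeks against untreated controls (0% like control, 100% dead).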
smiles,measurement,setting,value
"COC(=O)CCOC(=O)C(OC)Oc1nn(-c2ccccc2F)c(-c2ccc(F)nc2)c1C1CC1 (single isomer, unassigned) [Example I-74]",Post-emergence effect at 20 g/ha against ZEAMX in %,ZEAMX; 20 g/ha,0%
same,Post-emergence effect against ABUTH,ABUTH; 20 g/ha,80%
same,Post-emergence effect against ABUTH,ABUTH; 80 g/ha,80%
same,Post-emergence effect against ABUTH,ABUTH; 320 g/ha,90%
same,Post-emergence effect against ALOMY,ALOMY,90%
same,Post-emergence effect against AMARE,AMARE; 20 g/ha,80%
same,Post-emergence effect against AMARE,AMARE; 80 g/ha,80%
same,Post-emergence effect against AMARE,AMARE; 320 g/ha,80%
same,Post-emergence effect against AVEFA,AVEFA; 80 g/ha,90%
same,Post-emergence effect against AVEFA,AVEFA; 320 g/ha,90%
same,Post-emergence effect against DIGSA,DIGSA; 80 g/ha,80%
same,Post-emergence effect against DIGSA,DIGSA; 320 g/ha,90%
same,Post-emergence effect against ECHCG,"ECHCG; 20 g/ha, visual rating about 3 weeks after treatment",90%
same,Post-emergence effect against ECHCG in %,ECHCG; 80 g/ha,90%
same,Post-emergence effect against ECHCG in %,ECHCG; 320 g/ha,90%
same,Post-emergence effect against LOLRI in %,LOLRI; 320 g/ha,90%
same,Post-emergence effect against MATIN in %,MATIN; 80 g/ha,80%
same,Post-emergence effect against MATIN in %,MATIN; 320 g/ha,80%
same,Post-emergence effect against PHBPU in %,PHBPU; 20 g/ha,80%
same,Post-emergence effect against PHBPU in %,PHBPU; 80 g/ha,90%
same,Post-emergence effect against PHBPU in %,PHBPU; 320 g/ha,90%
same,Post-emergence effect against POLCO in %,POLCO; 320 g/ha,90%
same,Post-emergence effect against SETVI in %,SETVI; 80 g/ha,90%
same,Post-emergence effect against SETVI in %,SETVI; 320 g/ha,90%
same,Post-emergence effect against VERPE in %,VERPE; 80 g/ha,90%
same,Post-emergence effect against VERPE in %,VERPE; 320 g/ha,90%
same,Post-emergence effect against VIOTR in %,VIOTR; 20 g/ha,80%
same,Post-emergence effect against VIOTR in %,VIOTR; 80 g/ha,90%
same,Post-emergence effect against VIOTR in %,VIOTR; 320 g/ha,90%
same,Post-emergence effect against KCHSC in %,KCHSC; 320 g/ha,90%
COC(=O)C(OC)Oc1nn(-c2ncccc2F)c(-c2ccc(F)nc2)c1C1CC1 (stereo not shown) [Example I-40],Post-emergence effect at 320 g/ha against ZEAMX in %,ZEAMX; 320 g/ha,0%
same,plant injury at 20 g/ha,"ZEAMX; Zea mays, 504 h, 20 g/ha, read-out: Post-emergence effect at 20 g/ha against ZEAMX in %",0%
same,plant injury at 80 g/ha,"ZEAMX; Zea mays, 504 h, 80 g/ha, read-out: Post-emergence effect at 80 g/ha against ZEAMX in %",0%
same,pest or weed control at 80 g/ha,"ABUTH; Abutilon theophrasti, 504 h, 80 g/ha, read-out: Post-emergence effect against ABUTH",90%
same,pest or weed control at 320 g/ha,"ABUTH; Abutilon theophrasti, 504 h, 320 g/ha, read-out: Post-emergence effect against ABUTH",90%
same,pest or weed control at 320 g/ha,"ALOMY; Alopecurus myosuroides, 504 h, read-out: Post-emergence effect against ALOMY",90%
same,pest or weed control at 320 g/ha,"AMARE; Amaranthus retroflexus, 504 h, 320 g/ha, read-out: Post-emergence effect against AMARE",80%
same,pest or weed control at 80 g/ha,"AVEFA; Avena fatua, 504 h, 80 g/ha, read-out: Post-emergence effect against AVEFA",80%
same,pest or weed control at 320 g/ha,"AVEFA; Avena fatua, 504 h, 320 g/ha, read-out: Post-emergence effect against AVEFA",90%
same,pest or weed control at 320 g/ha,"DIGSA; Digitaria sanguinalis, 504 h, 320 g/ha, read-out: Post-emergence effect against DIGSA",90%
same,pest or weed control at 80 g/ha,"ECHCG; Echinochloa crus-galli, 504 h, 80 g/ha, read-out: Post-emergence effect against ECHCG in %",90%
same,pest or weed control at 320 g/ha,"ECHCG; Echinochloa crus-galli, 504 h, 320 g/ha, read-out: Post-emergence effect against ECHCG in %",90%
same,pest or weed control at 80 g/ha,"LOLRI; Lolium rigidum, 504 h, 80 g/ha, read-out: Post-emergence effect against LOLRI in %",90%
same,pest or weed control at 320 g/ha,"LOLRI; Lolium rigidum, 504 h, 320 g/ha, read-out: Post-emergence effect against LOLRI in %",90%
same,pest or weed control at 320 g/ha,"MATIN; Tripleurospermum inodorum, 504 h, 320 g/ha, read-out: Post-emergence effect against MATIN in %",80%
same,pest or weed control at 80 g/ha,"PHBPU; Ipomoea purpurea, 504 h, 80 g/ha, read-out: Post-emergence effect against PHBPU in %",90%
same,pest or weed control at 320 g/ha,"PHBPU; Ipomoea purpurea, 504 h, 320 g/ha, read-out: Post-emergence effect against PHBPU in %",90%
same,pest or weed control at 80 g/ha,"POLCO; Fallopia convolvulus, 504 h, 80 g/ha, read-out: Post-emergence effect against POLCO in %",90%
same,pest or weed control at 320 g/ha,"POLCO; Fallopia convolvulus, 504 h, 320 g/ha, read-out: Post-emergence effect against POLCO in %",90%
same,pest or weed control at 320 g/ha,"SETVI; Setaria viridis, 504 h, 320 g/ha, read-out: Post-emergence effect against SETVI in %",90%
same,pest or weed control at 320 g/ha,"VERPE; Veronica persica, 504 h, 320 g/ha, read-out: Post-emergence effect against VERPE in %",90%
same,pest or weed control at 80 g/ha,"VIOTR; Viola tricolor, 504 h, 80 g/ha, read-out: Post-emergence effect against VIOTR in %",90%
same,pest or weed control at 320 g/ha,"VIOTR; Viola tricolor, 504 h, 320 g/ha, read-out: Post-emergence effect against VIOTR in %",90%
same,Post-emergence effect against KCHSC in %,KCHSC; 80 g/ha,90%
same,Post-emergence effect against KCHSC in %,KCHSC; 320 g/ha,90%

# From patent US20240391862A1, “(1,4,5-TRISUBSTITUTED-1H-PYRAZOL-3-YL)OXY-2-ALKOXY ALKYL ACIDS AND THEIR DERIVATIVES, THEIR SALTS AND THEIR USE AS HERBICIDAL AGENTS” (Bayer AKtiengesellschaft, priority 2021, published 2024)
